Source: patent publication US12660819B2, “Herbicidal derivatives” (SYNGENTA CROP PROTECTION AG, priority 2020, dated 2026)

Tests used:
Assay type in all cases: in vivo
[1] = system: Echinochloa crus-galli (ECHCG); assay: Pre-emergence Test (glasshouse, percentage damage to the plant); conditions: 1000 g/ha unless otherwise stated, five-point scale
[2] = system: Amaranthus retoflexus (AMARE); assay: as above; conditions: 1000 g/ha unless otherwise stated, five-point scale
[3] = system: Setaria faberi (SETFA); assay: as above; conditions: 1000 g/ha unless otherwise stated, five-point scale
[4] = system: Ipomoea hederacea (IPOHE); assay: as above; conditions: 1000 g/ha unless otherwise stated, five-point scale
[5] = system: Zea mays (ZEAMX); assay: as above; conditions: 1000 g/ha unless otherwise stated, five-point scale
[6] = system: Amaranthus retoflexus (AMARE); assay: Post-emergence Test (glasshouse, percentage damage to the plant); conditions: post-emergence spray, 1000 g/ha unless otherwise stated, evaluated after 13 days
Procedure, shortened: (§1)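 Spray treatment of sown glasshouse pots at 1000 g/ha (default rate), vehicle acetone/water 50:50 plus 0.5% Tween 20. Read-out: percentage damage after 13 days, converted to a score where 5 denotes 81-100% and 1 denotes 0-20%.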

[7] = system: Ipomoea hederacea (IPOHE); assay: as above; conditions: post-emergence spray, 1000 g/ha unless otherwise stated, evaluated after 13 days
Procedure, shortened: (§2)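 Scored 13 days after spraying as percentage plant damage in five bands (5=81–100%, 4=61–80%, 3=41–60%, 2=21–40%, 1=0–20%). Spray at 1000 g/ha unless stated, in acetone/water 50:50 plus 0.5% Tween 20, onto sown glasshouse pots (24/16 °C, 14 h light, 65% humidity).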

[8] = system: Echinochloa crus-galli (ECHCG); assay: as above; conditions: post-emergence spray, 1000 g/ha unless otherwise stated, evaluated after 13 days
Procedure, shortened: as §1

[9] = system: Abutilon theophrasti (ABUTH); assay: as above; conditions: post-emergence spray, 1000 g/ha unless otherwise stated, evaluated after 13 days
Procedure, shortened: as §1

[10] = system: Setaria faberi (SETFA); assay: as above; conditions: post-emergence spray, 1000 g/ha unless otherwise stated, evaluated after 13 days
Procedure, shortened: as §2

[11] = system: Zea mays (ZEAMX); assay: as above; conditions: post-emergence spray, 1000 g/ha unless otherwise stated, evaluated after 13 days
Procedure, shortened: as §2

[12] = system: Abutilon theophrasti (ABUTH); assay: Pre-emergence Test (glasshouse, percentage damage to the plant); conditions: 1000 g/ha unless otherwise stated, five-point scale

Row | SMILES | percentage damage to the plant, ECHCG [1] | percentage damage to the plant, AMARE [2] | percentage damage to the plant, SETFA [3] | percentage damage to the plant, IPOHE [4] | percentage damage to the plant, ZEAMX [5] | Post-emergence Test AMARE, percentage damage to the plant (five-point scale) [6] | Post-emergence Test IPOHE, percentage damage to the plant (five-point scale) [7] | Post-emergence Test ECHCG, percentage damage to the plant (five-point scale) [8] | Post-emergence Test ABUTH, percentage damage to the plant (five-point scale) [9] | Post-emergence Test SETFA, percentage damage to the plant (five-point scale) [10] | Post-emergence Test ZEAMX, percentage damage to the plant (five-point scale) [11] | percentage damage to the plant, ABUTH [12]
1 | CCn1c(C)c(-c2ccc(Cl)s2)c(=O)c(C(=O)O)c1-c1ccc(Cl)c(Cl)c1 [Compound 63, 5-(5-chloro-2-thienyl)-2-(3,4-dichlorophenyl)-1-ethyl-6-methyl-4-oxo-pyridine-3-carboxylic acid] | 1 (1=0-20%) | 4 (4=61-80%) | 3 (3=41-60%) | 2 (2=21-40%) | 1 (1=0-20%) | 3 (3=41-60%) | 3 (3=41-60%) | 4 (4=61-80%) | 3 (3=41-60%) | 3 (3=41-60%) | 3 (3=41-60%) | 2 (2=21-40%)
2 | CCn1c(C)c(-c2ccc(C(F)(F)F)c(Cl)c2)c(=O)c(C(=O)O)c1-c1ccc(Cl)c(Cl)c1 [Compound 64, 5-[3-chloro-4-(trifluoromethyl)phenyl]-2-(3,4-dichlorophenyl)-1-ethyl-6-methyl-4-oxo-pyridine-3-carboxylic acid] | 1 (1=0-20%) | 2 (2=21-40%) | 1 (1=0-20%) | 1 (1=0-20%) | 1 (1=0-20%) | 1 (1=0-20%) | 1 (1=0-20%) | 1 (1=0-20%) | 1 (1=0-20%) | 1 (1=0-20%) | 1 (1=0-20%) | 1 (1=0-20%)
3 | CCOc1cc(-c2c(C)n(CC)c(-c3ccc(Cl)c(Cl)c3)c(C(=O)O)c2=O)ccc1C(F)(F)F [Compound 65, 2-(3,4-dichlorophenyl)-5-[3-ethoxy-4-(trifluoromethyl)phenyl]-1-ethyl-6-methyl-4-oxo-pyridine-3-carboxylic acid] | 1 (1=0-20%) | 1 (1=0-20%) | 1 (1=0-20%) | 1 (1=0-20%) | 1 (1=0-20%) | 1 (1=0-20%) | 1 (1=0-20%) | 1 (1=0-20%) | 1 (1=0-20%) | 1 (1=0-20%) | 1 (1=0-20%) | 1 (1=0-20%)
4 | CCn1c(C)c(-c2ccc(S(=O)(=O)CC)cc2)c(=O)c(C(=O)O)c1-c1ccc(Cl)c(Cl)c1 [Compound 66, 2-(3,4-dichlorophenyl)-1-ethyl-5-(4-ethylsulfonylphenyl)-6-methyl-4-oxo-pyridine-3-carboxylic acid] | 2 (2=21-40%) | 1 (1=0-20%) | 4 (4=61-80%) | 1 (1=0-20%) | 1 (1=0-20%) | 1 (1=0-20%) | 2 (2=21-40%) | 2 (2=21-40%) | 3 (3=41-60%) | 3 (3=41-60%) | 1 (1=0-20%) | 1 (1=0-20%)
5 | CCn1c(C)c(-c2cc(C)cc(C(F)(F)F)c2)c(=O)c(C(=O)O)c1-c1ccc(Cl)c(Cl)c1 [Compound 67, 2-(3,4-dichlorophenyl)-1-ethyl-6-methyl-5-[3-methyl-5-(trifluoromethyl)phenyl]-4-oxo-pyridine-3-carboxylic acid] | 1 (1=0-20%) | 1 (1=0-20%) | 1 (1=0-20%) | 1 (1=0-20%) | 1 (1=0-20%) | 1 (1=0-20%) | 1 (1=0-20%) | 1 (1=0-20%) | 2 (2=21-40%) | 1 (1=0-20%) | 1 (1=0-20%) | 1 (1=0-20%)
6 | CCn1c(C)c(C2=CCCC2)c(=O)c(C(=O)O)c1-c1ccc(Cl)c(Cl)c1 [Compound 68, 5-(cyclopenten-1-yl)-2-(3,4-dichlorophenyl)-1-ethyl-6-methyl-4-oxo-pyridine-3-carboxylic acid] | 1 (1=0-20%) | 1 (1=0-20%) | 5 (5=81-100%) | 2 (2=21-40%) | 1 (1=0-20%) | 1 (1=0-20%) | 3 (3=41-60%) | 2 (2=21-40%) | 3 (3=41-60%) | 3 (3=41-60%) | 1 (1=0-20%) | 1 (1=0-20%)
7 | CCn1c(C)c(-c2cc(Cl)nc(OC(C)C)c2)c(=O)c(C(=O)O)c1-c1ccc(Cl)c(Cl)c1 [Compound 69, 5-(2-chloro-6-isopropoxy-4-pyridyl)-2-(3,4-dichlorophenyl)-1-ethyl-6-methyl-4-oxo-pyridine-3-carboxylic acid] | 1 (1=0-20%) | 1 (1=0-20%) | 4 (4=61-80%) | 4 (4=61-80%) | 2 (2=21-40%) | 2 (2=21-40%) | 3 (3=41-60%) | 1 (1=0-20%) | 2 (2=21-40%) | 3 (3=41-60%) | 1 (1=0-20%) | 2 (2=21-40%)
8 | CCn1c(C)c(-c2cc(OC)cc(OC)c2)c(=O)c(C(=O)O)c1-c1ccc(Cl)c(Cl)c1 [Compound 70, 2-(3,4-dichlorophenyl)-5-(3,5-dimethoxyphenyl)-1-ethyl-6-methyl-4-oxo-pyridine-3-carboxylic acid] | 1 (1=0-20%) | 1 (1=0-20%) | 3 (3=41-60%) | 1 (1=0-20%) | 1 (1=0-20%) | 1 (1=0-20%) | 1 (1=0-20%) | 2 (2=21-40%) | 2 (2=21-40%) | 3 (3=41-60%) | 2 (2=21-40%) | 1 (1=0-20%)
